In PMC8443647, “Hybrid derivative of cathelicidin and human beta defensin-2 against Gram-positive bacteria: A novel approach for the treatment of bacterial keratitis” (Scientific Reports, 2021):
Values joined by “and” are separate entries in the source; they are usually repeats but may differ in a detail not shown here. Equal values may be shown once. Read-outs that look alike come from different tables or passages of the source. Peptide text beside a SMILES is read from it.

Experiments:
MRSA-OS = assay: microbe, parasite or virus in culture; type: cell-based, Staphylococcus aureus; conditions: 24 h
Excerpt: (§1) A range of Gram-positive and Gram-negative laboratory- and clinical-strain bacteria were used for the experiments. These included laboratory-strain methicillin-sensitive S. aureus (MSSA; including SH1000 and ATCC SA29213), laboratory-strain MRSA (ATCC MRSA43300), clinical-strain MRSA (MRSA-OS; an IK isolate), laboratory-strain methicillin-sensitive Staphylococcus epidermidis (MSSE; ATCC SE12228), laboratory invasive-strain P. aeruginosa (PAO1-L), and clinical cytotoxic-strain P. aeruginosa (PA-OS; an IK isolate).
(§2) In vitro antimicrobial efficacy of the antibiotics and designed HDPs was determined using an established MIC assay with broth microdilution method approved by the Clinical and Laboratory Standards Institute (CLSI)[64]. Briefly, the microorganisms were cultured on Tryptone Soya Agar (TSA) and incubated overnight for 18–21 h at 37 °C. Bacterial inoculums were subsequently prepared using the direct colony suspension method. Three to five bacterial colonies were obtained from the agar plate and inoculated into an Eppendorf tube containing 1 ml of cation-adjusted Muller-Hinton broth (caMHB), consisting of 20–25 mg/L calcium ions (Ca^2+) and 10–12.5 mg/L magnesium ions (Mg^2+). The bacterial suspension was adjusted to achieve a turbidity equivalent to 0.1 OD600 or 0.5 MacFarland, containing ~ 1.5 × 10^8 colony-forming unit (CFU)/ml, which was then further diluted in 1:150 in caMHB to reach a final bacterial concentration of ~ 1 × 10^6 colony forming units (CFU)/ml. Each treatment (peptide or antibiotic) was prepared in 1:2 serial dilution in 96-well polypropylene microplates (with a final treatment volume of 50 μl per well), followed by the addition of 50 μl of 1 × 10^6 CFU/ml bacteria into each well (with a final bacterial concentration of 5 × 10^5 CFU/ml).

S. aureus SH1000 = assay: microbe, parasite or virus in culture; type: cell-based, Staphylococcus aureus
Excerpt: as §1, §2

P. aeruginosa PA-OS = assay: microbe, parasite or virus in culture; type: cell-based; conditions: Pseudomonas aeruginosa, 24 h, caMHB, read-out: MIC
Excerpt: as §1, §2

P. aeruginosa PAO1-L = assay: microbe, parasite or virus in culture; type: cell-based
Excerpt: as §1, §2

[1] = tested on: human corneal epithelial cells (HCE-2); assay: cells; type: cell-based; conditions: 3 h
Protocol: (§3) Cell viability and cytotoxicity of antibiotics and peptides were determined against human corneal epithelial cells (HCE-2, CRL-11135, ATCC, Manassas, Virginia, USA) using cell-counting-kit-8 (CCK-8) assay (Sigma Aldrich, Merck Life Science UK Limited, Dorset, UK) and lactate dehydrogenase (LDH) assay (ThermoFisher Scientific, UK), respectively, as per manufacturer’s guidelines. HCE-2 cells were cultured and seeded into a 96-well plate at a density of 7.5 × 10^3 cells/well and allowed to attach overnight and grew to 80–90% confluency in keratinocyte serum free medium (KSFM) supplemented with human recombinant epidermal growth factor, bovine pituitary extract, hydrocortisone, and insulin. Once the confluency reached 80–90%, the cells were incubated with treatment for 3 h before OD450 measurement was taken using BMG Clariostar microplate reader (BMG Labtech Ltd., Aylesbury, UK). Appropriate controls were used, including 0.1% Triton X-100 as positive control and KSFM as negative control. Cell viability was calculated using the following formula: [([…]) × 100; I = intensity] and cytotoxicity was calculated using the following formula: [((Itreatment – INC)/(IPC – INC)) × 100].

in vitro = type: cell-based, human; conditions: human
Protocol: as §3

[2] = tested on: human corneal epithelial cells (HCE-2); assay: in vitro; type: cell-based
Protocol: as §3

Hemolytic assay = type: cell-based; conditions: human, Hmax (%): percentage of hemolysis at 200 µg/ml
Protocol: (§4) Ethical approval was obtained from the Local Research Ethics Committee of University of Nottingham prior to the experiment (Ref: 176-1812). The experiment was conducted in accordance with the relevant guidelines and regulations. Hemolytic assay was performed according to the previously established protocol. Briefly, 5 ml of fresh human blood was collected from healthy participants with written informed consent, in an EDTA tube and centrifuged for 10 min at 1300g at 10 °C for separation of plasma. The remaining erythrocytes were rinsed and centrifuged further three times in Ca^2+/Mg^2+ free Dulbecco’s phosphate-buffered saline (DPBS). Subsequently, erythrocytes were diluted to 8% v/v in DPBS and incubated with 100 μl of treatment, positive control (1% Triton X-100) and negative control (DPBS), all in 1:1 ratio, for 1 h (final erythrocytes concentration = 4% v/v). After 1 h of incubation, the plate was centrifuged at 500×g for 5 min and 100 μl of supernatant of each well was transferred into a 96-well plate for measurement at OD540. Hemolysis (%) was calculated as [(Itreatment – INC)/(IPC – INC)] × 100.

fresh human erythrocytes = assay: Hemolytic assay; type: cell-based; conditions: 1 h
Protocol: as §4

S. aureus ATCC 29213 = assay: Murine S. aureus keratitis model (in vivo efficacy); parameters: species or system Staphylococcus aureus; C57BL/6J mice; conditions: levofloxacin 0.5%
Protocol: Based on the in vivo safety data, the highest tolerable concentration of CaD23, 500 μg/ml (0.05%), was used in the subsequent S. aureus keratitis murine model. Levofloxacin 0.5%, a commonly used antibiotic for BK in clinical setting, and PBS were used as the positive and negative controls, respectively.
All mice were randomly allocated to each treatment group (n = 5 mice/group). Slit-lamp examination was performed before the start of experiment to confirm the health of corneas. […] 10 μl of ~ 1 × 10^8 CFU/ml of ATCC SA29213 was applied topically onto the cornea and the lid was held shut for 1 min. […] The eyes were monitored daily using slit-lamp biomicroscopy and photography. Ocular clinical scoring was adapted from a previous method described by Clemens et al.[52] with minor modifications: (a) 0: Clear cornea or minimal opacity, partially covering the pupil; (b) + 1: Mild opacity, partially/fully covering the pupil; (c) + 2: Dense opacity, partially covering the pupil; (d) + 3: Dense opacity fully covering the pupil; and (e) + 4: Corneal perforation or phthisis.
At the end of day 3, all animals were sacrificed, and the infected eyes were enucleated. The whole corneas were subsequently dissected and homogenized in 1 ml of sterile PBS using sterile glass micro-beads. The homogenised infected corneal tissue suspension was serially diluted in 1:10 and plated on TSA plates in triplicates for enumeration of CFU after 24 h incubation at 37 °C.

[3] = tested on: Gram-positive or Gram-negative bacteria; assay: MIC assay, all tested organisms summarised; type: cell-based; conditions: summary over the organisms tested, without salt
Excerpt: as §1
In vitro antimicrobial efficacy of the antibiotics and designed HDPs was determined using an established MIC assay with broth microdilution method approved by the Clinical and Laboratory Standards Institute (CLSI)[64]. Briefly, the microorganisms were cultured on Tryptone Soya Agar (TSA) and incubated overnight for 18–21 h at 37 °C. Bacterial inoculums were subsequently prepared using the direct colony suspension method. Three to five bacterial colonies were obtained from the agar plate and inoculated into an Eppendorf tube containing 1 ml of cation-adjusted Muller-Hinton broth (caMHB), consisting of 20–25 mg/L calcium ions (Ca^2+) and 10–12.5 mg/L magnesium ions (Mg^2+). […]

[4] = 0 mM NaCl, caMHB, 24 h, listed as LL-37
[5] = 0 mM NaCl, caMHB, 24 h, read-out: MIC

SMILES: C[C@H]1COc2c(N3CCN(C)CC3)c(F)cc3c(=O)c(C(=O)O)cn1c23 [Levofloxacin, levofloxacin, reference compound]
- MIC (MRSA-OS; 150 mM NaCl, caMHB): 0.31 µg/mL
- MIC (MRSA-OS; 150 mM NaCl, caMHB, read-out: MIC): 0.86 µM
- MIC (MRSA-OS; Staphylococcus aureus, MRSA, 0 mM NaCl, caMHB, read-out: MIC): 0.31 µg/mL and 0.86 µM
- MIC (S. aureus SH1000; Staphylococcus aureus, SH1000, 24 h, 0 mM NaCl, caMHB, 24 h, read-out: MIC): 0.31 µg/mL and 0.86 µM
- MIC (S. aureus SH1000; Staphylococcus aureus, SH1000, 24 h, 150 mM NaCl, caMHB, 24 h, read-out: MIC): 0.31 µg/mL and 0.86 µM
- MIC (P. aeruginosa PA-OS; 0 mM NaCl): 0.31 µg/mL and 0.86 µM
- MIC (P. aeruginosa PA-OS; 150 mM NaCl): 0.31 µg/mL and 0.86 µM
- MIC (P. aeruginosa PAO1-L; Pseudomonas aeruginosa, PAO1, 24 h, 0 mM NaCl, caMHB, 24 h, read-out: MIC): 0.31 µg/mL and 0.86 µM
- MIC (P. aeruginosa PAO1-L; Pseudomonas aeruginosa, PAO1, 24 h, 150 mM NaCl, caMHB, 24 h, read-out: MIC): 0.31 µg/mL and 0.86 µM
- Imax (%): percentage of inhibition of cell viability at 200 µg/ml ([1]; HCE-2, CCK-8 assay, 200 µg/ml, mean (SD)): 108.0 (2.8) %
- IC50 ([1]; Homo sapiens, Corneal epithelial cell, HCE-2, CCK-8 assay, mean (SD), read-out: IC50 (concentration causing 50% inhibition of cell viability)): > 200 mg/L
- CC50 at 3 h (in vitro): > 200 mg/L
- Lmax (%): percentage of cytotoxicity at 200 µg/ml ([2]; human, 3 h, 200 µg/ml): 1.2 (0.7) %
- hemolysis at 1 h, 200 µg/ml (Hemolytic assay): 0%
- HC50 (concentration causing 50% hemolysis) (fresh human erythrocytes): > 200 µg/mL
- S. aureus bacterial viability (S. aureus ATCC 29213; CaD23 0.05%, after 3 days of treatment, median ± IQR): 2.4 ± 2.2 log10 CFU/ml
- Reduction of S. aureus bacterial viability compared to PBS group (S. aureus ATCC 29213; CaD23 0.05%, topical 4 times a day for 3 days, median): 98%
- Ocular clinical scoring (S. aureus ATCC 29213; day 3 post-treatment, CaD23 0.05%, scale 0 to +4): 1.0 ± 0.71
- Median reduction in the bacterial bioburden compared to the PBS group (S. aureus ATCC 29213): 1.8 logCFU

SMILES: CC[C@H](C)[C@H](NC(=O)[C@H](CCCNC(=N)N)NC(=O)[C@H](CCC(N)=O)NC(=O)[C@@H](NC(=O)[C@@H](NC(=O)[C@H](CCCNC(=N)N)NC(=O)[C@@H](N)CCCCN)[C@@H](C)CC)C(C)C)C(=O)N[C@@H](CCCCN)C(=O)N[C@@H](CC(=O)O)C(=O)N[C@@H](Cc1ccccc1)C(=O)N[C@@H](CC(C)C)C(=O)N[C@@H](CCCNC(=N)N)C(=O)N[C@@H](CCCCN)C(=O)N[C@@H](CS)C(=O)N[C@@H](CS)C(=O)N[C@@H](CCCCN)C(=O)N[C@@H](CCCCN)C(=O)N1CCC[C@H]1C(=O)O [CaD2, KRIVQRIKDF LRKCCKKP] (H-KRIVQRIKDFLRKCCKKP-OH; N-terminus and C-terminus assumed)
- MIC (MRSA-OS; -OS): > 200 µg/mL
- MIC (S. aureus SH1000; SH1000, 24 h): > 200 µg/mL
- MIC (P. aeruginosa PAO1-L; PAO1, 24 h): > 200 µg/mL
- IC50 (concentration causing 50% inhibition of cell viability) [1]: > 200 mg/L
- CC50 at 3 h (in vitro): > 200 mg/L
- Lmax (%): percentage of cytotoxicity at 200 µg/ml [2]: 2.9 (2.2) %

SMILES: CC[C@H](C)[C@H](NC(=O)[C@H](CCCCN)NC(=O)[C@H](CCC(=O)O)NC(=O)[C@H](CCCCN)NC(=O)[C@H](CO)NC(=O)[C@H](CCCCN)NC(=O)[C@H](CCCNC(=N)N)NC(=O)[C@H](Cc1ccccc1)NC(=O)[C@H](Cc1ccccc1)NC(=O)[C@H](CC(=O)O)NC(=O)CNC(=O)[C@H](CC(C)C)NC(=O)[C@@H](N)CC(C)C)C(=O)NCC(=O)N[C@@H](CCCCN)C(=O)N[C@@H](CCC(=O)O)C(=O)N[C@@H](Cc1ccccc1)C(=O)N[C@@H](CCCCN)C(=O)N[C@@H](CCCNC(=N)N)C(=O)N[C@H](C(=O)N[C@H](C(=O)N[C@@H](CCC(N)=O)C(=O)N[C@@H](CCCNC(=N)N)C(=O)N[C@H](C(=O)N[C@@H](CCCCN)C(=O)N[C@@H](CC(=O)O)C(=O)N[C@@H](Cc1ccccc1)C(=O)N[C@@H](CC(C)C)C(=O)N[C@@H](CCCNC(=N)N)C(=O)N[C@@H](CC(N)=O)C(=O)N[C@@H](CC(C)C)C(=O)N[C@H](C(=O)N1CCC[C@H]1C(=O)N[C@@H](CCCNC(=N)N)C(=O)N[C@H](C(=O)N[C@@H](CCC(=O)O)C(=O)N[C@@H](CO)C(=O)O)[C@@H](C)O)C(C)C)[C@@H](C)CC)C(C)C)[C@@H](C)CC [LL37, LLGDFFRKSKEKIGKEFKRIVQRIKDFLRNLVPRTES, reference compound]
- MIC (MRSA-OS; 0 mM NaCl, caMHB): 25 µg/mL
- MIC (MRSA-OS; 0 mM NaCl, caMHB, listed as LL-37): 25 µg/mL
- MIC (MRSA-OS; 0 mM NaCl, caMHB, read-out: MIC): 5.6 µM
- MIC (S. aureus SH1000; 0 mM NaCl, caMHB, 24 h): 25 µg/mL
- MIC (S. aureus SH1000; [4]): 25.0 µg/mL
- MIC (S. aureus SH1000; [5]): 5.6 µM
- MIC (P. aeruginosa PAO1-L; 0 mM NaCl, caMHB, 24 h): 50 µg/mL
- MIC (P. aeruginosa PAO1-L; [4]): 50 µg/mL
- MIC (P. aeruginosa PAO1-L; [5]): 11.1 µM
- MIC [3]: 25 to 50 mg/L
